Earlier results, collected in patent publication US20250000872A1, “FORMULATIONS AND DOSING REGIMENS FOR RIP1 KINASE INHIBITORS FOR TREATING AUTOIMMUNE AND INFLAMMATORY DISEASES” (Eli Lilly and Company, priority 2023, published 2025).

Experiments:
[1] = tested on: patients with mild-to-moderate active plaque-type psoriasis; conditions: 60 mg orally b.i.d. and 60 mg orally t.i.d.; cited from earlier work
[2] = modified release formulations, fasted state; not maintained with standard or high-fat meal; cited from earlier work
[3] = tested on: patients with moderate to severe RA; conditions: 60 mg orally b.i.d. and t.i.d. for up to 84 days; cited from earlier work
UC = conditions: 60 mg orally t.i.d. for up to 84 days; cited from earlier work

Question: Which results are given for `CN1C(=O)[C@@H](NC(=O)c2nnc(Cc3ccccc3)[nH]2)COc2ccccc21` [GSK2982772, 5-Benzyl-N-[(3S)-5-methyl-4-oxo-2,3-dihydro-1,5-benzoxazepin-3-yl]-1H-1,2,4-triazole-3-carboxamide]?
Answer: clinical improvement over placebo [1]: limited; GSK2982772 released over 12 h [2]: 80%; difference over placebo in disease activity, radiological progression, or inflammatory markers [3]: No significant difference; histological disease activity or clinical efficacy compared with placebo (UC): does not lead to differences
